Test results taken from patent publication US12473324B2, “Triazine-based amphiphilic compound and use thereof” (INDUSTRY-UNIVERSITY COOPERATION FOUNDATION HANYANG …, priority 2019, dated 2025).

Assays:
[1] = Hydrodynamic radius (Rh) of micelles by dynamic light scattering (DLS); assay type: physicochemical; details: 1.0 wt % detergent
Description: A method of measuring the radius of micelle is not particularly limited, but a method widely known in the art may be used, and for example, the radius of micelle may be measured using a dynamic light scattering (DLS) experiment.
(§1) Specifically, the critical micelle concentrations (CMCs) were measured using a fluorescent dye, diphenylhexatriene (DPH), and the hydrodynamic radii (Rh) of micelles formed by each preparation (1.0 wt %) were determined by a dynamic light scattering (DLS) experiment. The measured results are shown in Table 1 compared to DDM which is an existing amphiphilic molecule (detergent).

[2] = Solubility of detergent (Table 1); assay type: physicochemical
[3] = Critical micelle concentration (CMC) by fluorescent dye diphenylhexatriene (DPH); assay type: physicochemical; details: DPH fluorescence
Description: A method of measuring the CMC is not particularly limited, but a method widely known in the art may be used, and for example, the CMC may be measured by a fluorescent staining method using diphenylhexatriene (DPH).
as §1

[4] = test system: leucine transporter (LeuT); assay: LeuT structural stability: [3H]-Leu binding by scintillation proximity assay (SPA); assay type: biochemical, Aquifex aeolicus; details: CMC+0.04 wt % or CMC+0.2 wt %, room temperature, 13-day incubation, [3H]-Leu SPA
Description: Experiments were performed to measure the structural stability of the LeuT protein by TSMs, TTGs and TEMs. Each amphiphilic compound was used at a concentration of (a) CMC+0.04 wt % or (b) CMC+0.2 wt %, and the substrate binding properties of LeuT were measured using [^3H]-Leu via scintillation proximity assay (SPA). The measurement was performed at regular intervals over the course of a 13-day and 12-day incubation at room temperature, respectively.
Specifically, a wild-type leucine transporter (LeuT) derived from the thermophilic bacterium Aquifex aeolicus was purified by a previously described method (Nature 1998, 392, 353-358 by G. Deckert et al.). LeuT was expressed in E. coli C41 (DE3) transformed with pET16b encoding the C-terminal 8×His-tagged transporter (expression plasmids were provided from Dr E. Gouaux, Vollum Institute, Portland, Oregon, USA). In summary, after a bacterial membrane was isolated and solubilized in 1 wt % DDM, the protein was bound to Ni^2+-NTA resin (Life Technologies, Denmark), and eluted in 20 mM Tris-HCl (pH 8.0), 1 mM NaCl, 199 mM KCl, 0.05% (w/v) DDM and 300 mM imidazole. Then, the purified LeuT (0.5 mg/ml) was diluted with buffers supplemented with TSMs, TTGs, TEMs or DDM at a final concentration of CMC+0.04% (w/v) or CMC+0.2% (w/v) except for DDM and imidazole in the equivalent buffer described above. Protein samples were incubated at room temperature for 13 days, centrifuged at a specified time, and protein properties were confirmed by measuring [^3H]-Leucine binding ability using SPA. SPA was performed with 5 μL of each protein sample in a buffer containing 450 mM NaCl and each of TSMs and TEMs (or DDM). The SPA reaction was performed in the presence of 20 nM [^3H]-Leucine and 1.25 mg/ml copper chelate (His-Tag) YSi beads (PerkinElmer, Denmark). Overall [^3H]-Leucine coupling to each sample was measured using a MicroBeta liquid scintillation counter (Perkin Elmer).

SMILES	Rh (nm) [1] [nm]	solubility [2] [%]	CMC [3] [mM]	LeuT substrate binding properties over incubation [4]
CCCCCCCCCCCCCCNc1nc(NCCCCCCCCCCCCCC)nc(NC(CO[C@@H]2O[C@H](CO)[C@@H](O)[C@H](O)[C@H]2O)(CO[C@@H]2O[C@H](CO)[C@@H](O)[C@H](O)[C@H]2O)CO[C@@H]2O[C@H](CO)[C@@H](O)[C@H](O)[C@H]2O)n1 [TTG-A14]	3.2 ± 0.05	~1	~0.008	
CCCCCCCCCCSc1nc(SCCCCCCCCCC)nc(N(CCO[C@@H]2O[C@H](CO)[C@@H](O[C@H]3O[C@H](CO)[C@@H](O)[C@H](O)[C@H]3O)[C@H](O)[C@H]2O)CCO[C@@H]2O[C@H](CO)[C@@H](O[C@H]3O[C@H](CO)[C@@H](O)[C@H](O)[C@H]3O)[C@H](O)[C@H]2O)n1 [TEM-T10]	4.3 ± 0.0	~5	~0.0025	best substrate binding activity
CCCCCCCCOc1nc(NC(CO[C@@H]2O[C@H](CO)[C@@H](O[C@H]3O[C@H](CO)[C@@H](O)[C@H](O)[C@H]3O)[C@H](O)[C@H]2O)CO[C@@H]2O[C@H](CO)[C@@H](O[C@H]3O[C@H](CO)[C@@H](O)[C@H](O)[C@H]3O)[C@H](O)[C@H]2O)nc(OCCCCCCCC)n1 [TSM-E8]	3.6 ± 0.1	~10	~0.02	best substrate binding activity
CCCCCCCCCCCNc1nc(NCCCCCCCCCCC)nc(NC(CO[C@@H]2O[C@H](CO)[C@@H](O)[C@H](O)[C@H]2O)(CO[C@@H]2O[C@H](CO)[C@@H](O)[C@H](O)[C@H]2O)CO[C@@H]2O[C@H](CO)[C@@H](O)[C@H](O)[C@H]2O)n1 [TTG-A11]	2.4 ± 0.11	~10	~0.2	
CCCCCCCSc1nc(NC(CO[C@@H]2O[C@H](CO)[C@@H](O)[C@H](O)[C@H]2O)(CO[C@@H]2O[C@H](CO)[C@@H](O)[C@H](O)[C@H]2O)CO[C@@H]2O[C@H](CO)[C@@H](O)[C@H](O)[C@H]2O)nc(SCCCCCCC)n1 [TTG-T7]	2.8 ± 0.16	~10	~0.02	
CCCCCCCCCNc1nc(NCCCCCCCCC)nc(NC(CO[C@@H]2O[C@H](CO)[C@@H](O)[C@H](O)[C@H]2O)(CO[C@@H]2O[C@H](CO)[C@@H](O)[C@H](O)[C@H]2O)CO[C@@H]2O[C@H](CO)[C@@H](O)[C@H](O)[C@H]2O)n1 [TTG-A9]	2.2 ± 0.20	~10	~0.5	
CCCCCCCCSc1nc(NC(CO[C@@H]2O[C@H](CO)[C@@H](O)[C@H](O)[C@H]2O)(CO[C@@H]2O[C@H](CO)[C@@H](O)[C@H](O)[C@H]2O)CO[C@@H]2O[C@H](CO)[C@@H](O)[C@H](O)[C@H]2O)nc(SCCCCCCCC)n1 [TTG-T8]	2.9 ± 0.09	~10	~0.015	
CCCCCCCOc1nc(NC(CO[C@@H]2O[C@H](CO)[C@@H](O[C@H]3O[C@H](CO)[C@@H](O)[C@H](O)[C@H]3O)[C@H](O)[C@H]2O)CO[C@@H]2O[C@H](CO)[C@@H](O[C@H]3O[C@H](CO)[C@@H](O)[C@H](O)[C@H]3O)[C@H](O)[C@H]2O)nc(OCCCCCCC)n1 [TSM-E7]	3.4 ± 0.1	~10	~0.04	
CCCCCCCCCCCSc1nc(NC(CO[C@@H]2O[C@H](CO)[C@@H](O[C@H]3O[C@H](CO)[C@@H](O)[C@H](O)[C@H]3O)[C@H](O)[C@H]2O)CO[C@@H]2O[C@H](CO)[C@@H](O[C@H]3O[C@H](CO)[C@@H](O)[C@H](O)[C@H]3O)[C@H](O)[C@H]2O)nc(SCCCCCCCCCCC)n1 [TSM-T11]	94.8 ± 45	~1	~0.001	
CCCCCCCCCCCOc1nc(OCCCCCCCCCCC)nc(N(CCO[C@@H]2O[C@H](CO)[C@@H](O[C@H]3O[C@H](CO)[C@@H](O)[C@H](O)[C@H]3O)[C@H](O)[C@H]2O)CCO[C@@H]2O[C@H](CO)[C@@H](O[C@H]3O[C@H](CO)[C@@H](O)[C@H](O)[C@H]3O)[C@H](O)[C@H]2O)n1 [TEM-E11]	25.2 ± 1.2	~1	~0.001	
CCCCCCCCCCNc1nc(NCCCCCCCCCC)nc(NC(CO[C@@H]2O[C@H](CO)[C@@H](O)[C@H](O)[C@H]2O)(CO[C@@H]2O[C@H](CO)[C@@H](O)[C@H](O)[C@H]2O)CO[C@@H]2O[C@H](CO)[C@@H](O)[C@H](O)[C@H]2O)n1 [TTG-A10]	2.3 ± 0.14	~10	~0.3	
CCCCCCCCCCCCNc1nc(NCCCCCCCCCCCC)nc(NC(CO[C@@H]2O[C@H](CO)[C@@H](O)[C@H](O)[C@H]2O)(CO[C@@H]2O[C@H](CO)[C@@H](O)[C@H](O)[C@H]2O)CO[C@@H]2O[C@H](CO)[C@@H](O)[C@H](O)[C@H]2O)n1 [TTG-A12]	2.5 ± 0.07	~5	~0.04	
CCCCCCCCCCSc1nc(NC(CO[C@@H]2O[C@H](CO)[C@@H](O[C@H]3O[C@H](CO)[C@@H](O)[C@H](O)[C@H]3O)[C@H](O)[C@H]2O)CO[C@@H]2O[C@H](CO)[C@@H](O[C@H]3O[C@H](CO)[C@@H](O)[C@H](O)[C@H]3O)[C@H](O)[C@H]2O)nc(SCCCCCCCCCC)n1 [TSM-T10]	38.2 ± 1.8	~5	~0.003	best substrate binding activity
CCCCCCCCCOc1nc(NC(CO[C@@H]2O[C@H](CO)[C@@H](O[C@H]3O[C@H](CO)[C@@H](O)[C@H](O)[C@H]3O)[C@H](O)[C@H]2O)CO[C@@H]2O[C@H](CO)[C@@H](O[C@H]3O[C@H](CO)[C@@H](O)[C@H](O)[C@H]3O)[C@H](O)[C@H]2O)nc(OCCCCCCCCC)n1 [TSM-E9]	4.0 ± 0.1	~10	~0.01	
CCCCCCCCNc1nc(NCCCCCCCC)nc(NC(CO[C@@H]2O[C@H](CO)[C@@H](O)[C@H](O)[C@H]2O)(CO[C@@H]2O[C@H](CO)[C@@H](O)[C@H](O)[C@H]2O)CO[C@@H]2O[C@H](CO)[C@@H](O)[C@H](O)[C@H]2O)n1 [TTG-A8]	2.1 ± 0.56	~10	~0.6	
CCCCCCCCCCCSc1nc(SCCCCCCCCCCC)nc(N(CCO[C@@H]2O[C@H](CO)[C@@H](O[C@H]3O[C@H](CO)[C@@H](O)[C@H](O)[C@H]3O)[C@H](O)[C@H]2O)CCO[C@@H]2O[C@H](CO)[C@@H](O[C@H]3O[C@H](CO)[C@@H](O)[C@H](O)[C@H]3O)[C@H](O)[C@H]2O)n1 [TEM-T11]	31.8 ± 0.3	~1	~0.001	
